How the values were obtained:
[1] = biological target: Cathepsin B (Homo sapiens, UniProt P07858); experiment: Inhibition of cathepsin B
[2] = system: B16-F10; experiment: Cytotoxicity against mouse B16F10 cells by MTT assay; assay type: functional
[3] = biological target: Cathepsin B (Mus musculus, UniProt P10605); experiment: Inhibition of cathepsin B in mouse B16F10 cells; assay type: cell-based, B16-F10
Sequence of Cathepsin B (Mus musculus, UniProt P10605) (P10605 whole entry): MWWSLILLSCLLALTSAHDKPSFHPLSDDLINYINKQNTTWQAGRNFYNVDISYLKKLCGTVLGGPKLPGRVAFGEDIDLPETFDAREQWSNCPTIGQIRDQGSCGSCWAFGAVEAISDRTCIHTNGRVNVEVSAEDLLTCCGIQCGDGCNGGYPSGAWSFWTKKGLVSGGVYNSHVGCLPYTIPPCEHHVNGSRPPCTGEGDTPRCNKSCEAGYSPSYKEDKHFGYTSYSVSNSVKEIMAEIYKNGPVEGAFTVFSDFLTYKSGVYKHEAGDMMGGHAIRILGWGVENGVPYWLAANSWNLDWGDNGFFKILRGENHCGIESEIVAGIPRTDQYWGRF

SMILES: CCCCOC(=O)c1ccccc1C(=O)OCCCC [DIBUTYL PHTHALATE]
- IC50 [1]: 420 µM
- Activity [2]: 9.45%
- IC50 [3]: 230 µM

SMILES: CCCC[C@@H](CC)COC(=O)c1ccccc1C(=O)OC[C@@H](CC)CCCC [BIS(2-ETHYLHEXYL)PHTHALATE]
- IC50 [1]: 380 µM
- Activity [2]: 7.34%
- IC50 [3]: 140 µM

From ChEMBL document CHEMBL1141634, “Cathepsin B inhibitory activities of phthalates isolated from a marine Pseudomonas strain” (Bioorg Med Chem Lett, 2008)
